Patent US4442044A, “Process for preparing monoesters and diesters of N-alkyl substituted amino methyl phosphonic acid” (priority 1983, dated 1984)

Legend:
Experiment in all cases: post-emergent herbicidal activity, greenhouse
Type in all cases: in vivo
Conditions in all cases: Table I
Barnyardgrass = test system: Barnyardgrass
Text: (§1) A good grade of top soil is placed in aluminum pans having holes in the bottom and compacted to a depth of 0.95 to 1.27 cm. from the top of the pan. A predetermined number of seeds of each of several dicotyledonous and monocotyledonous annual plant species and/or vegetative propagules for the perennial plant species were placed on the soil and pressed into the soil surface. The seeds and/or vegetative propagules are covered with soil and leveled. The pans are then placed on a sand bench in the greenhouse and watered from below as needed. After the plants reach the desired age (two to three weeks), each pan except for the control pans is removed individually to a spraying chamber and sprayed by means of an atomizer operating at a positive air pressure of approximately 1.46 kg/cm^2 absolute. The atomizer contains 6 ml. of a solution or suspension of the chemical. In that 6 ml., is an amount of a cyclohexanone emulsifying agent mixture to give a spray solution or suspension which contains about 0.4% by weight of the emulsifier. The spray solution or suspension contains a sufficient amount of the candidate chemical in order to give application rates corresponding to those set forth in the tables. The spray solution is prepared by taking an aliquot of a 1.0% by weight stock solution or suspension of the candidate chemical in an organic solvent such as acetone or tetrahydrofuran or in water. The emulsifying agent employed is a mixture comprising 35 weight percent butylamine dodecylbenzene sulfonate and 65 weight percent of a tall oil ethylene oxide condensate having about 11 moles of ethylene oxide per mole of tall oil. The pans are returned to the greenhouse and watered as before and the injury to the plants as compared to the control is observed at approximately two and four weeks as indicated in the tables under WAT and the results recorded. In some instances, the two-week observations are omitted.
(§2) The post-emergent herbicidal activity index used in Tables I and II is as follows: […]

Canada Thistle = test system: Canada Thistle
Text: as §1, §2

Cocklebur = test system: Cocklebur
Text: as §1, §2

Downy Brome = test system: Downy Brome
Text: as §1, §2

Johnsongrass = test system: Johnsongrass
Text: as §1, §2

Lambsquarters = test system: Lambsquarters
Text: as §1, §2

Morningglory = test system: Morningglory
Text: as §1, §2

Quackgrass = test system: Quackgrass
Text: as §1, §2

Smartweed = test system: Smartweed
Text: as §1, §2

Velvetleaf = test system: Velvetleaf
Text: as §1, §2

Yellow Nutsedge = test system: Yellow Nutsedge
Text: as §1, §2

CCOC(=O)CNCP(=O)(OC(CC(=O)OCC)C(=O)OCC)OC(CC(=O)OCC)C(=O)OCC (stereo not shown) [Example 14, butanoic acid, 2,2'-[[[(2-ethoxy-2-oxo-ethyl)amino]methyl]phosphinylidene]bis(oxy)-bis-,tetraethyl ester]
post-emergent herbicidal activity index (Barnyardgrass; 2 WAT, 5.6 kg/h): 0 (0-24% control) | post-emergent herbicidal activity index (Barnyardgrass; 2 WAT, 11.2 kg/h): 0 (0-24% control) | post-emergent herbicidal activity index (Barnyardgrass; 2 WAT, 56.0 kg/h): 4 (100% control) | post-emergent herbicidal activity index (Barnyardgrass; 4 WAT, 56.0 kg/h): 3 (75-99% control) | post-emergent herbicidal activity index (Canada Thistle; 2 WAT, 5.6 kg/h): 0 (0-24% control) | post-emergent herbicidal activity index (Canada Thistle; 2 WAT, 11.2 kg/h): 0 (0-24% control) | post-emergent herbicidal activity index (Canada Thistle; 2 WAT, 56.0 kg/h): 4 (100% control) | post-emergent herbicidal activity index (Canada Thistle; 4 WAT, 56.0 kg/h): 1 (25-49% control) | post-emergent herbicidal activity index (Cocklebur; 2 WAT, 5.6 kg/h): 0 (0-24% control) | post-emergent herbicidal activity index (Cocklebur; 2 WAT, 11.2 kg/h): 0 (0-24% control) | post-emergent herbicidal activity index (Cocklebur; 2 WAT, 56.0 kg/h): 4 (100% control) | post-emergent herbicidal activity index (Cocklebur; 4 WAT, 56.0 kg/h): 4 (100% control) | post-emergent herbicidal activity index (Downy Brome; 2 WAT, 5.6 kg/h): 0 (0-24% control) | post-emergent herbicidal activity index (Downy Brome; 2 WAT, 11.2 kg/h): 0 (0-24% control) | post-emergent herbicidal activity index (Downy Brome; 2 WAT, 56.0 kg/h): 3 (75-99% control) | post-emergent herbicidal activity index (Downy Brome; 4 WAT, 56.0 kg/h): 2 (50-74% control) | post-emergent herbicidal activity index (Johnsongrass; 2 WAT, 5.6 kg/h): 0 (0-24% control) | post-emergent herbicidal activity index (Johnsongrass; 2 WAT, 11.2 kg/h): 0 (0-24% control) | post-emergent herbicidal activity index (Johnsongrass; 2 WAT, 56.0 kg/h): 3 (75-99% control) | post-emergent herbicidal activity index (Johnsongrass; 4 WAT, 56.0 kg/h): 3 (75-99% control) | post-emergent herbicidal activity index (Lambsquarters; 2 WAT, 5.6 kg/h): 0 (0-24% control) | post-emergent herbicidal activity index (Lambsquarters; 2 WAT, 11.2 kg/h): 0 (0-24% control) | post-emergent herbicidal activity index (Lambsquarters; 2 WAT, 56.0 kg/h): 4 (100% control) | post-emergent herbicidal activity index (Lambsquarters; 4 WAT, 56.0 kg/h): 4 (100% control) | post-emergent herbicidal activity index (Morningglory; 2 WAT, 5.6 kg/h): 0 (0-24% control) | post-emergent herbicidal activity index (Morningglory; 2 WAT, 11.2 kg/h): 0 (0-24% control) | post-emergent herbicidal activity index (Morningglory; 2 WAT, 56.0 kg/h): 3 (75-99% control) | post-emergent herbicidal activity index (Morningglory; 4 WAT, 56.0 kg/h): 2 (50-74% control) | post-emergent herbicidal activity index (Quackgrass; 2 WAT, 5.6 kg/h): 0 (0-24% control) | post-emergent herbicidal activity index (Quackgrass; 2 WAT, 11.2 kg/h): 0 (0-24% control) | post-emergent herbicidal activity index (Quackgrass; 2 WAT, 56.0 kg/h): 4 (100% control) | post-emergent herbicidal activity index (Quackgrass; 4 WAT, 56.0 kg/h): 3 (75-99% control) | post-emergent herbicidal activity index (Smartweed; 2 WAT, 5.6 kg/h): 0 (0-24% control) | post-emergent herbicidal activity index (Smartweed; 2 WAT, 11.2 kg/h): 0 (0-24% control) | post-emergent herbicidal activity index (Smartweed; 2 WAT, 56.0 kg/h): 4 (100% control) | post-emergent herbicidal activity index (Smartweed; 4 WAT, 56.0 kg/h): 3 (75-99% control) | post-emergent herbicidal activity index (Velvetleaf; 2 WAT, 5.6 kg/h): 0 (0-24% control) | post-emergent herbicidal activity index (Velvetleaf; 2 WAT, 11.2 kg/h): 0 (0-24% control) | post-emergent herbicidal activity index (Velvetleaf; 2 WAT, 56.0 kg/h): 4 (100% control) | post-emergent herbicidal activity index (Velvetleaf; 4 WAT, 56.0 kg/h): 3 (75-99% control) | post-emergent herbicidal activity index (Yellow Nutsedge; 2 WAT, 5.6 kg/h): 0 (0-24% control) | post-emergent herbicidal activity index (Yellow Nutsedge; 2 WAT, 11.2 kg/h): 0 (0-24% control) | post-emergent herbicidal activity index (Yellow Nutsedge; 2 WAT, 56.0 kg/h): 4 (100% control) | post-emergent herbicidal activity index (Yellow Nutsedge; 4 WAT, 56.0 kg/h): 1 (25-49% control)

CCOC(=O)CNCP(=O)(OC(C)C(=O)OCC)OC(C)C(=O)OCC (stereo not shown) [Example 16, propanoic acid, 2,2'-[[[[(2-ethoxy-2-oxoethyl)amino]methyl]phosphinylidene]bis(oxy)]-bis-,diethyl ester]
post-emergent herbicidal activity index (Barnyardgrass; 4 WAT, 5.6 kg/h): 1 (25-49% control) | post-emergent herbicidal activity index (Barnyardgrass; 4 WAT, 11.2 kg/h): 1 (25-49% control) | post-emergent herbicidal activity index (Canada Thistle; 4 WAT, 5.6 kg/h): 0 (0-24% control) | post-emergent herbicidal activity index (Canada Thistle; 4 WAT, 11.2 kg/h): 0 (0-24% control) | post-emergent herbicidal activity index (Cocklebur; 4 WAT, 5.6 kg/h): 0 (0-24% control) | post-emergent herbicidal activity index (Cocklebur; 4 WAT, 11.2 kg/h): 1 (25-49% control) | post-emergent herbicidal activity index (Downy Brome; 4 WAT, 5.6 kg/h): 0 (0-24% control) | post-emergent herbicidal activity index (Downy Brome; 4 WAT, 11.2 kg/h): 1 (25-49% control) | post-emergent herbicidal activity index (Johnsongrass; 4 WAT, 5.6 kg/h): 0 (0-24% control) | post-emergent herbicidal activity index (Johnsongrass; 4 WAT, 11.2 kg/h): 0 (0-24% control) | post-emergent herbicidal activity index (Lambsquarters; 4 WAT, 5.6 kg/h): 0 (0-24% control) | post-emergent herbicidal activity index (Lambsquarters; 4 WAT, 11.2 kg/h): 0 (0-24% control) | post-emergent herbicidal activity index (Morningglory; 4 WAT, 5.6 kg/h): 1 (25-49% control) | post-emergent herbicidal activity index (Morningglory; 4 WAT, 11.2 kg/h): 1 (25-49% control) | post-emergent herbicidal activity index (Quackgrass; 4 WAT, 5.6 kg/h): 0 (0-24% control) | post-emergent herbicidal activity index (Quackgrass; 4 WAT, 11.2 kg/h): 0 (0-24% control) | post-emergent herbicidal activity index (Smartweed; 4 WAT, 5.6 kg/h): 0 (0-24% control) | post-emergent herbicidal activity index (Smartweed; 4 WAT, 11.2 kg/h): 0 (0-24% control) | post-emergent herbicidal activity index (Velvetleaf; 4 WAT, 5.6 kg/h): 0 (0-24% control) | post-emergent herbicidal activity index (Velvetleaf; 4 WAT, 11.2 kg/h): 0 (0-24% control) | post-emergent herbicidal activity index (Yellow Nutsedge; 4 WAT, 5.6 kg/h): 1 (25-49% control) | post-emergent herbicidal activity index (Yellow Nutsedge; 4 WAT, 11.2 kg/h): 1 (25-49% control)

CCOC(=O)CNCP(=O)(OCCCl)OCCCl [Example 17, glycine, N-[[bis(2-chloroethoxy)phosphinyl]methyl]-, ethyl ester]
post-emergent herbicidal activity index (Barnyardgrass; 2 WAT, 5.6 kg/h): 0 (0-24% control) | post-emergent herbicidal activity index (Barnyardgrass; 4 WAT, 11.2 kg/h): 1 (25-49% control) | post-emergent herbicidal activity index (Canada Thistle; 2 WAT, 5.6 kg/h): 0 (0-24% control) | post-emergent herbicidal activity index (Canada Thistle; 4 WAT, 11.2 kg/h): 0 (0-24% control) | post-emergent herbicidal activity index (Cocklebur; 2 WAT, 5.6 kg/h): 0 (0-24% control) | post-emergent herbicidal activity index (Cocklebur; 4 WAT, 11.2 kg/h): 0 (0-24% control) | post-emergent herbicidal activity index (Downy Brome; 2 WAT, 5.6 kg/h): 0 (0-24% control) | post-emergent herbicidal activity index (Downy Brome; 4 WAT, 11.2 kg/h): 0 (0-24% control) | post-emergent herbicidal activity index (Johnsongrass; 2 WAT, 5.6 kg/h): 0 (0-24% control) | post-emergent herbicidal activity index (Johnsongrass; 4 WAT, 11.2 kg/h): 0 (0-24% control) | post-emergent herbicidal activity index (Lambsquarters; 2 WAT, 5.6 kg/h): 0 (0-24% control) | post-emergent herbicidal activity index (Lambsquarters; 4 WAT, 11.2 kg/h): 1 (25-49% control) | post-emergent herbicidal activity index (Morningglory; 2 WAT, 5.6 kg/h): 0 (0-24% control) | post-emergent herbicidal activity index (Morningglory; 4 WAT, 11.2 kg/h): 1 (25-49% control) | post-emergent herbicidal activity index (Quackgrass; 2 WAT, 5.6 kg/h): 0 (0-24% control) | post-emergent herbicidal activity index (Quackgrass; 4 WAT, 11.2 kg/h): 0 (0-24% control) | post-emergent herbicidal activity index (Smartweed; 2 WAT, 5.6 kg/h): 0 (0-24% control) | post-emergent herbicidal activity index (Smartweed; 4 WAT, 11.2 kg/h): 1 (25-49% control) | post-emergent herbicidal activity index (Velvetleaf; 2 WAT, 5.6 kg/h): 0 (0-24% control) | post-emergent herbicidal activity index (Velvetleaf; 4 WAT, 11.2 kg/h): 1 (25-49% control) | post-emergent herbicidal activity index (Yellow Nutsedge; 2 WAT, 5.6 kg/h): 0 (0-24% control) | post-emergent herbicidal activity index (Yellow Nutsedge; 4 WAT, 11.2 kg/h): 0 (0-24% control)
